Results taken from patent US20250340519A1, “RADIOLABELLED COMPOUND” (OXFORD UNIVERSITY INNOVATION LIMITED, priority 2018, published 2025).
Several values for one entry are separate records, joined by “and”; a condition that tells them apart may be missing. Equal values may be shown once.

Columns and labels:
[1] = Ex vivo biodistribution in naïve CBA/Carl mice; settings: 1 h p.i., individual animals
Description: (§1) Dynamic PET/CT images were acquired following an intravenous bolus administration of [^18F]-olaparib. Biodistribution studies, where selected tissues were harvested, were performed 1 h post injection. Some animals were also administered an excess of cold, unlabelled olaparib for evaluating the specificity of tumour uptake. EF5, a hypoxia-selective marker, was injected 2 h before culling of the animal. Digital autoradiography was performed on tumour sections. Image analysis was performed using PMOD.
(§2) Dynamic PET/CT images were acquired using a VECTor ^4CT integrated PET/CT system. Mice were anaesthetised by 4% isoflurane gas (0.5 L/min O2) and placed on a custom-built imaging cradle in a prone position. Animals mice were intravenously injected with [^18F]-olaparib or (3-5 MBq, 8-11 GBq/μmol, through a tail vein catheter, and dynamic imaging was performed over 45-60 min after radiolabelled compound administration. PET acquisition (150 s per frame, using list mode acquisition) using an ultra-high resolution rat/mouse 1.8 mm collimator, followed by a cone-beam CT scan (55 kV, 0.19 mA) for anatomical reference and attenuation correction. Anaesthesia was maintained at 2.5% isoflurane throughout the duration of the image acquisition. PET images were reconstructed using U-SPECT-Rec3.22 software (MILabs, Utrecht, The Netherlands), applying a pixel-based algorithm with 8 subsets, 6 iterations and 0.8 mm voxel size for ^18F (energy window settings 477.9-584.1 keV).
(§3) After PET/CT image acquisition, animals were euthanized by cervical dislocation and selected organs, tissues and blood were removed. The amount of radioactivity in each organ was measured using a 2480 WIZARD^2 gamma counter (PerkinElmer). Counts per minute were converted into MBq using a calibration curve generated from known standards. Values were decay-corrected to the time of injection, and the percentage of the injected dose per gram (% ID/g) of each tissue was calculated.

CaNT allograft = assay: Ex vivo biodistribution in CaNT allograft bearing CBA/Carl mice; settings: for Ex vivo biodistribution Blood / Ex vivo biodistribution Bone / Ex vivo biodistribution Brain / Ex vivo biodistribution Caecum / Ex vivo biodistribution Fat / Ex vivo biodistribution Gallbladder / Ex vivo biodistribution Heart / Ex vivo biodistribution Kidney / Ex vivo biodistribution Large intestine / Ex vivo biodistribution Liver / Ex vivo biodistribution Lung / Ex vivo biodistribution Muscle / Ex vivo biodistribution Pancreas / Ex vivo biodistribution Skin / Ex vivo biodistribution Spleen / Ex vivo biodistribution Stomach / Ex vivo biodistribution Tumour: CaNT allograft mice, 1 h p.i.; for tumour uptake (group mean): CaNT tumours
Description: All animal procedures were performed in accordance with the UK Animals (Scientific Procedures) Act 1986 and with local ethical committee approval. Animals were housed in IVC cages in sex-matched groups up to 5 per cage, in an artificial day-night cycle facility, with ad libitum access to food and water. Tumour xenografts or allografts were generated by subcutaneous injection of PANC-1 or Capan-1 cell suspensions in the hind flank of balb/c nu/nu animals. CaNT xenografts were generated by harvesting CaNT tumours from donor animals, and injecting a tumour homogenate subcutaneously in the flank of wild type CBA/Carl mice. Tumours were irradiated (10 Gy, 2 Gy/min) using a 300 kV X-ray device.
as §1
The murine adenocarcinoma NT (CaNT) was implanted subcutaneously onto the right thigh of 6-7 week-old female CBA/Carl mice. Fifty μL of a crude cell suspension, prepared by mechanical dissociation of an excised tumor from a donor animal, was injected. Tumors were selected for imaging when the geometric mean diameter reached 6-8 mm (volumes calculated as above), approximately 3 weeks after implantation (Kersemans, V., et al. Hypoxia imaging using PET and SPECT: the effects of anesthetic and carrier gas on [Cu]-ATSM, [Tc]-HL91 and [F]-FMISO tumor hypoxia accumulation. PloS one 6, e25911, 2011).
Two hours prior to PET/CT imaging, animals were exposed to X-irradiation of the tumour (10 Gy or sham) (see schedule in FIG. 13). Radiation was delivered using a Gulmay 320 kV X-irradiator; 2.0 Gy/min. Anaesthesia was maintained at 2.5% isoflurane throughout the duration of the irradiation, and animals were allowed to recover. To study the relationship of PARP1 expression, ^18F-olaparib uptake and hypoxia, animals were administered 0.6 μg in 200 μL (0.9% saline) intraperitoneally, one hour prior to PET/CT imaging. Naïve CBA/Carl mice, not bearing tumours, were not irradiated, nor was EF5 administered.
as §2, §3

[2] = + IR (10 Gy), individual animals
[3] = + block (excess cold olaparib), individual animal
[4] = tracer alone, individual animals

O=C(c1cc(Cc2n[nH]c(=O)c3ccccc23)ccc1[18F])N1CCN(C(=O)C2CC2)CC1 [[^18F]olaparib]
Ex vivo biodistribution Blood [1]: 0.11 % ID/g (2×) and 0.14 % ID/g | Ex vivo biodistribution Fat [1]: 0.05 % ID/g and 0.03 % ID/g and 0.26 % ID/g | Ex vivo biodistribution Heart [1]: 0.19 % ID/g and 0.17 % ID/g and 0.34 % ID/g | Ex vivo biodistribution Kidney [1]: 0.59 % ID/g and 0.60 % ID/g and 1.01 % ID/g | Ex vivo biodistribution Large intestine [1]: 0.92 % ID/g and 1.64 % ID/g and 2.99 % ID/g | Ex vivo biodistribution Liver [1]: 2.55 % ID/g and 4.02 % ID/g and 5.27 % ID/g | Ex vivo biodistribution Lung [1]: 0.29 % ID/g and 0.19 % ID/g and 0.34 % ID/g | Ex vivo biodistribution Muscle [1]: 0.20 % ID/g and 0.14 % ID/g and 0.34 % ID/g | Ex vivo biodistribution Pancreas [1]: 0.91 % ID/g and 0.70 % ID/g and 1.30 % ID/g | Ex vivo biodistribution Skin [1]: 0.16 % ID/g and 0.10 % ID/g and 0.27 % ID/g | Ex vivo biodistribution Small intestine [1]: 7.75 % ID/g and 10.33 % ID/g and 17.40 % ID/g | Ex vivo biodistribution Spleen [1]: 2.09 % ID/g and 1.91 % ID/g and 3.68 % ID/g | Ex vivo biodistribution Stomach [1]: 0.46 % ID/g and 0.26 % ID/g and 0.58 % ID/g | Ex vivo biodistribution Blood (CaNT allograft; [2]): 9.79 % ID/g and 3.12 % ID/g | Ex vivo biodistribution Bone (CaNT allograft; [2]): 15.7 % ID/g and 11.5 % ID/g | Ex vivo biodistribution Brain (CaNT allograft; [2]): 0.20 % ID/g and 0.25 % ID/g | Ex vivo biodistribution Caecum (CaNT allograft; [2]): 42.9 % ID/g and 44.6 % ID/g | Ex vivo biodistribution Fat (CaNT allograft; [2]): 2.52 % ID/g and 2.34 % ID/g | Ex vivo biodistribution Gallbladder (CaNT allograft; [2]): 155 % ID/g and 57.3 % ID/g | Ex vivo biodistribution Heart (CaNT allograft; [2]): 8.74 % ID/g and 7.03 % ID/g | Ex vivo biodistribution Kidney (CaNT allograft; [2]): 24.5 % ID/g and 19.0 % ID/g | Ex vivo biodistribution Large intestine (CaNT allograft; [2]): 60.1 % ID/g and 47.0 % ID/g | Ex vivo biodistribution Liver (CaNT allograft; [2]): 93.2 % ID/g and 100 % ID/g | Ex vivo biodistribution Lung (CaNT allograft; [2]): 10.9 % ID/g and 9.61 % ID/g | Ex vivo biodistribution Muscle (CaNT allograft; [2]): 5.45 % ID/g and 5.31 % ID/g | Ex vivo biodistribution Pancreas (CaNT allograft; [2]): 29.5 % ID/g and 23.6 % ID/g | Ex vivo biodistribution Skin (CaNT allograft; [2]): 5.02 % ID/g and 5.12 % ID/g | Ex vivo biodistribution Spleen (CaNT allograft; [2]): 69.0 % ID/g and 58.3 % ID/g | Ex vivo biodistribution Stomach (CaNT allograft; [2]): 9.40 % ID/g and 4.20 % ID/g | Ex vivo biodistribution Tumour (CaNT allograft; [2]): 1.43 % ID/g and 1.92 % ID/g | Ex vivo biodistribution Blood (CaNT allograft; [3]): 4.00 % ID/g | Ex vivo biodistribution Bone (CaNT allograft; [3]): 5.18 % ID/g | Ex vivo biodistribution Brain (CaNT allograft; [3]): 0.22 % ID/g | Ex vivo biodistribution Caecum (CaNT allograft; [3]): 101 % ID/g | Ex vivo biodistribution Fat (CaNT allograft; [3]): 1.57 % ID/g | Ex vivo biodistribution Gallbladder (CaNT allograft; [3]): 194 % ID/g | Ex vivo biodistribution Heart (CaNT allograft; [3]): 2.51 % ID/g | Ex vivo biodistribution Kidney (CaNT allograft; [3]): 8.45 % ID/g | Ex vivo biodistribution Large intestine (CaNT allograft; [3]): 61.2 % ID/g | Ex vivo biodistribution Liver (CaNT allograft; [3]): 74.3 % ID/g | Ex vivo biodistribution Lung (CaNT allograft; [3]): 2.29 % ID/g | Ex vivo biodistribution Muscle (CaNT allograft; [3]): 2.65 % ID/g | Ex vivo biodistribution Pancreas (CaNT allograft; [3]): 3.41 % ID/g | Ex vivo biodistribution Skin (CaNT allograft; [3]): 1.16 % ID/g | Ex vivo biodistribution Spleen (CaNT allograft; [3]): 2.41 % ID/g | Ex vivo biodistribution Stomach (CaNT allograft; [3]): 4.09 % ID/g | Ex vivo biodistribution Tumour (CaNT allograft; [3]): 0.98 % ID/g | Ex vivo biodistribution Blood (CaNT allograft; [4]): 1.78 % ID/g and 8.00 % ID/g | Ex vivo biodistribution Bone (CaNT allograft; [4]): 11.7 % ID/g and 10.2 % ID/g | Ex vivo biodistribution Brain (CaNT allograft; [4]): 0.29 % ID/g and 0.23 % ID/g | Ex vivo biodistribution Caecum (CaNT allograft; [4]): 32.5 % ID/g and 56.2 % ID/g | Ex vivo biodistribution Fat (CaNT allograft; [4]): 7.19 % ID/g and 1.12 % ID/g | Ex vivo biodistribution Gallbladder (CaNT allograft; [4]): 953 % ID/g and 126 % ID/g | Ex vivo biodistribution Heart (CaNT allograft; [4]): 7.34 % ID/g and 0.00 % ID/g | Ex vivo biodistribution Kidney (CaNT allograft; [4]): 23.9 % ID/g and 21.0 % ID/g | Ex vivo biodistribution Large intestine (CaNT allograft; [4]): 24.0 % ID/g and 47.8 % ID/g | Ex vivo biodistribution Liver (CaNT allograft; [4]): 84.6 % ID/g and 110 % ID/g | Ex vivo biodistribution Lung (CaNT allograft; [4]): 12.5 % ID/g and 9.73 % ID/g | Ex vivo biodistribution Muscle (CaNT allograft; [4]): 5.84 % ID/g and 4.63 % ID/g | Ex vivo biodistribution Pancreas (CaNT allograft; [4]): 15.1 % ID/g and 20.8 % ID/g | Ex vivo biodistribution Skin (CaNT allograft; [4]): 3.82 % ID/g and 4.65 % ID/g | Ex vivo biodistribution Spleen (CaNT allograft; [4]): 43.3 % ID/g and 47.0 % ID/g | Ex vivo biodistribution Stomach (CaNT allograft; [4]): 6.17 % ID/g and 12.8 % ID/g | Ex vivo biodistribution Tumour (CaNT allograft; [4]): 1.48 % ID/g and 2.83 % ID/g | tumour uptake (group mean) (CaNT allograft; excess cold olaparib): 0.80±0.19 % ID/g | tumour uptake (group mean) (CaNT allograft; tracer alone): 1.71±0.59 % ID/g
